Measurements reported in US10202377B2, “3-(1H-benzo[D]imidazol-2-yl)-1H-pyrazolo[3,4-C]pyridine and therapeutic uses thereof” (Samumed, LLC, priority 2014, dated 2019).
pEC50, pIC50: −log10 of the molar value.

Key:
[1] = system: Wnt activity (Sp5-Luc reporter, SW480 colon carcinoma cells); experiment: Sp5-Luc Wnt reporter gene screening assay in SW480 colon carcinoma cells; details: Homo sapiens
[2] = system: primary human fibroblasts derived from IPF patients (LL29 cells); experiment: Inhibition of fibrosis (αSMA staining) in TGF-β1-treated primary human fibroblasts from IPF patients; type: cell-based; details: Fibroblast, 96 h, TGF-β1 20 ng/mL, 4 days
Procedure, shortened: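 LL29 IPF fibroblasts in F12 with 1% FBS were stimulated with TGF-β1 (20 ng/mL) and incubated 4 days at 37 °C. SYTOX-positive dead cells were excluded, and αSMA-positive cells were counted by immunostaining as % of total. Values were normalized to TGF-β1/DMSO wells on the same plate, and EC50 derived.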

## O=C(Nc1cncc(-c2cc3c(-c4nc5c(-c6ccc(F)s6)cccc5[nH]4)n[nH]c3cn2)c1)C1CCC1 [Compound 358, N-(5-(3-(4-(5-Fluorothiophen-2-yl)-1H-benzo[d]imidazol-2-yl)-1H-pyrazolo[3,4-c]pyridin-5-yl)pyridin-3-yl)cyclobutanecarboxamide]
[1]
  pIC50: 7.94
[2]
  pEC50: 5.00

## Cc1ccc(-c2cccc3[nH]c(-c4n[nH]c5cnc(-c6cncc(NC(=O)CC(C)C)c6)cc45)nc23)s1 [Compound 366, 3-Methyl-N-(5-(3-(4-(5-methylthiophen-2-yl)-1H-benzo[d]imidazol-2-yl)-1H-pyrazolo[3,4-c]pyridin-5-yl)pyridin-3-yl)butanamide]
[1]
  pIC50: 7.51
[2]
  pEC50: 6.65

## Cc1ccc(-c2cccc3[nH]c(-c4n[nH]c5cnc(-c6cncc(NC(=O)C(C)C)c6)cc45)nc23)s1 [Compound 373, N-(5-(3-(4-(5-Methylthiophen-2-yl)-1H-benzo[d]imidazol-2-yl)-1H-pyrazolo[3,4-c]pyridin-5-yl)pyridin-3-yl)isobutyramide]
[1]
  pIC50: 7.49
[2]
  pEC50: 7.85

## Cc1ccc(-c2cccc3[nH]c(-c4n[nH]c5cnc(-c6cncc(CN7CCCCC7)c6)cc45)nc23)s1 [Compound 379, 3-(4-(5-Methylthiophen-2-yl)-1H-benzo[d]imidazol-2-yl)-5-(5-(piperidin-1-ylmethyl)pyridin-3-yl)-1H-pyrazolo[3,4-c]pyridine]
[1]
  pIC50: 6.44
[2]
  pEC50: 8.05

## CCCC(=O)Nc1cncc(-c2cc3c(-c4nc5c(-c6ccc(C)s6)cccc5[nH]4)n[nH]c3cn2)c1 [Compound 381, N-(5-(3-(4-(5-Methylthiophen-2-yl)-1H-benzo[d]imidazol-2-yl)-1H-pyrazolo[3,4-c]pyridin-5-yl)pyridin-3-yl)butyramide]
[1]
  pIC50: 7.67
[2]
  pEC50: 7.10

## Cc1ccc(-c2cccc3[nH]c(-c4n[nH]c5cnc(-c6cncc(NC(=O)C7CCCC7)c6)cc45)nc23)s1 [Compound 385, N-(5-(3-(4-(5-Methylthiophen-2-yl)-1H-benzo[d]imidazol-2-yl)-1H-pyrazolo[3,4-c]pyridin-5-yl)pyridin-3-yl)cyclopentanecarboxamide]
[1]
  pIC50: 7.48
[2]
  pEC50: 7.70

## CC(=O)c1ccc(-c2cccc3[nH]c(-c4n[nH]c5cnc(-c6cccnc6)cc45)nc23)s1 [Compound 394, 1-(5-(2-(5-(Pyridin-3-yl)-1H-pyrazolo[3,4-c]pyridin-3-yl)-1H-benzo[d]imidazol-4-yl)thiophen-2-yl)ethan-1-one]
[1]
  pIC50: 7.35
[2]
  pEC50: 6.96

## CC(=O)c1ccc(-c2cccc3[nH]c(-c4n[nH]c5cnc(-c6cncc(NC(=O)Cc7ccccc7)c6)cc45)nc23)s1 [Compound 400, N-(5-(3-(4-(5-Acetylthiophen-2-yl)-1H-benzo[d]imidazol-2-yl)-1H-pyrazolo[3,4-c]pyridin-5-yl)pyridin-3-yl)-2-phenylacetamide]
[1]
  pIC50: 7.37
[2]
  pEC50: 6.66

## CC(=O)c1ccc(-c2cccc3[nH]c(-c4n[nH]c5cnc(-c6cncc(NC(=O)C7CCCCC7)c6)cc45)nc23)s1 [Compound 412, N-(5-(3-(4-(5-Acetylthiophen-2-yl)-1H-benzo[d]imidazol-2-yl)-1H-pyrazolo[3,4-c]pyridin-5-yl)pyridin-3-yl)cyclohexanecarboxamide]
[1]
  pIC50: 6.82
[2]
  pEC50: 5.04

## CC(C)(C)C(=O)Nc1cncc(-c2cc3c(-c4nc5c(-c6cc(F)cc(CNS(C)(=O)=O)c6)cccc5[nH]4)n[nH]c3cn2)c1 [Compound 424, N-(5-(3-(4-(3-Fluoro-5-(methylsulfonamidomethyl)phenyl)-1H-benzo[d]imidazol-2-yl)-1H-pyrazolo[3,4-c]pyridin-5-yl)pyridin-3-yl)pivalamide]
[1]
  pIC50: 7.70
[2]
  pEC50: 7.29

## CS(=O)(=O)NCc1cc(F)cc(-c2cccc3[nH]c(-c4n[nH]c5cnc(-c6cncc(NC(=O)c7ccccc7)c6)cc45)nc23)c1 [Compound 427, N-(5-(3-(4-(3-Fluoro-5-(methylsulfonamidomethyl)phenyl)-1H-benzo[d]imidazol-2-yl)-1H-pyrazolo[3,4-c]pyridin-5-yl)pyridin-3-yl)benzamide]
[1]
  pIC50: 6.76
[2]
  pEC50: 8.05

## CCCC(=O)Nc1cncc(-c2cc3c(-c4nc5c(-c6cc(F)cc(CNS(C)(=O)=O)c6)cccc5[nH]4)n[nH]c3cn2)c1 [Compound 433, N-(5-(3-(4-(3-Fluoro-5-(methylsulfonamidomethyl)phenyl)-1H-benzo[d]imidazol-2-yl)-1H-pyrazolo[3,4-c]pyridin-5-yl)pyridin-3-yl)butyramide]
[1]
  pIC50: 7.55
[2]
  pEC50: 8.05

## CS(=O)(=O)NCc1cc(F)cc(-c2cccc3[nH]c(-c4n[nH]c5cnc(-c6cncc(CNCc7ccccc7)c6)cc45)nc23)c1 [Compound 439, N-(3-(2-(5-(5-((Benzylamino)methyl)pyridin-3-yl)-1H-pyrazolo[3,4-c]pyridin-3-yl)-1H-benzo[d]imidazol-4-yl)-5-fluorobenzyl)methanesulfonamide]
[1]
  pIC50: 7.40
[2]
  pEC50: 8.05

## CS(=O)(=O)NCc1cc(F)cc(-c2cccc3[nH]c(-c4n[nH]c5cnc(-c6cncnc6)cc45)nc23)c1 [Compound 442, N-(3-Fluoro-5-(2-(5-(pyrimidin-5-yl)-1H-pyrazolo[3,4-c]pyridin-3-yl)-1H-benzo[d]imidazol-4-yl)benzyl)methanesulfonamide]
[1]
  pIC50: 7.59
[2]
  pEC50: 8.05

## CCNCc1cncc(-c2cc3c(-c4nc5c(-c6cc(F)cc(NCCN(C)C)c6)cccc5[nH]4)n[nH]c3cn2)c1 [Compound 448, N^1-(3-(2-(5-(5-((Ethylamino)methyl)pyridin-3-yl)-1H-pyrazolo[3,4-c]pyridin-3-yl)-1H-benzo[d]imidazol-4-yl)-5-fluorophenyl)-N^2,N^2-dimethylethane-1,2-diamine]
[1]
  pIC50: 6.17
[2]
  pEC50: 8.05

## CN(C)CCNc1cc(F)cc(-c2cccc3[nH]c(-c4n[nH]c5cnc(-c6cncc(NC(=O)C(C)(C)C)c6)cc45)nc23)c1 [Compound 450, N-(5-(3-(4-(3-((2-(Dimethylamino)ethyl)amino)-5-fluorophenyl)-1H-benzo[d]imidazol-2-yl)-1H-pyrazolo[3,4-c]pyridin-5-yl)pyridin-3-yl)pivalamide]
[1]
  pIC50: 6.80
[2]
  pEC50: 7.07

## CCCCC(=O)Nc1cncc(-c2cc3c(-c4nc5c(-c6cc(F)cc(NCCN(C)C)c6)cccc5[nH]4)n[nH]c3cn2)c1 [Compound 460, N-(5-(3-(4-(3-((2-(Dimethylamino)ethyl)amino)-5-fluorophenyl)-1H-benzo[d]imidazol-2-yl)-1H-pyrazolo[3,4-c]pyridin-5-yl)pyridin-3-yl)pentanamide]
[1]
  pIC50: 6.74
[2]
  pEC50: 5.98

## CN(C)CCNc1cc(F)cc(-c2cccc3[nH]c(-c4n[nH]c5cnc(-c6cncc(CNCC7CCCC7)c6)cc45)nc23)c1 [Compound 466, N^1-(3-(2-(5-(5-(((Cyclopentylmethyl)amino)methyl)pyridin-3-yl)-1H-pyrazolo[3,4-c]pyridin-3-yl)-1H-benzo[d]imidazol-4-yl)-5-fluorophenyl)-N^2,N^2-dimethylethane-1,2-diamine]
[1]
  pIC50: 6.33
[2]
  pEC50: 6.51

## Fc1cccc(-c2cccc3[nH]c(-c4n[nH]c5cnc(C6CCNCC6)cc45)nc23)c1 [Compound 937, 3-(4-(3-Fluorophenyl)-1H-benzo[d]imidazol-2-yl)-5-(piperidin-4-yl)-1H-pyrazolo[3,4-c]pyridine]
[1]
  pIC50: 5.50
[2]
  pEC50: 5.00

## CN(C)CCOc1cncc(-c2cc3c(-c4nc5c(-c6cccc(F)c6)cccc5[nH]4)n[nH]c3cn2)c1 [Compound 947, 2-((5-(3-(4-(3-Fluorophenyl)-1H-benzo[d]imidazol-2-yl)-1H-pyrazolo[3,4-c]pyridin-5-yl)pyridin-3-yl)oxy)-N,N-dimethylethan-1-amine]
[1]
  pIC50: 6.33
[2]
  pEC50: 5.00

## COc1cncc(-c2cc3c(-c4nc5c(-c6cccc(F)c6)cccc5[nH]4)n[nH]c3cn2)c1 [Compound 948, 3-(4-(3-Fluorophenyl)-1H-benzo[d]imidazol-2-yl)-5-(5-methoxypyridin-3-yl)-1H-pyrazolo[3,4-c]pyridine]
[1]
  pIC50: 7.48
[2]
  pEC50: 7.14

## Oc1cncc(-c2cc3c(-c4nc5c(-c6cccc(F)c6)cccc5[nH]4)n[nH]c3cn2)c1 [Compound 949, 5-(3-(4-(3-Fluorophenyl)-1H-benzo[d]imidazol-2-yl)-1H-pyrazolo[3,4-c]pyridin-5-yl)pyridin-3-ol]
[1]
  pIC50: 7.54
[2]
  pEC50: 5.00

## Fc1cccc(-c2cccc3[nH]c(-c4n[nH]c5cnc(-c6ccncc6)cc45)nc23)c1 [Compound 952, 3-(4-(3-Fluorophenyl)-1H-benzo[d]imidazol-2-yl)-5-(pyridin-4-yl)-1H-pyrazolo[3,4-c]pyridine]
[1]
  pIC50: 7.28
[2]
  pEC50: 5.00

## Fc1cccc(-c2cccc3[nH]c(-c4n[nH]c5cnc(-c6ccccn6)cc45)nc23)c1 [Compound 953, 3-(4-(3-Fluorophenyl)-1H-benzo[d]imidazol-2-yl)-5-(pyridin-2-yl)-1H-pyrazolo[3,4-c]pyridine]
[1]
  pIC50: 6.60
[2]
  pEC50: 8.05

## Fc1cccc(-c2cccc3[nH]c(-c4n[nH]c5cnc(-c6cnccn6)cc45)nc23)c1 [Compound 954, 3-(4-(3-Fluorophenyl)-1H-benzo[d]imidazol-2-yl)-5-(pyrazin-2-yl)-1H-pyrazolo[3,4-c]pyridine]
[1]
  pIC50: 7.35
[2]
  pEC50: 6.60

## CC(C)CC(=O)Nc1cncc(-c2cc3c(-c4nc5c(-c6cc(O)cc(F)c6)cccc5[nH]4)n[nH]c3cn2)c1 [Compound 1350, N-(5-(3-(4-(3-Fluoro-5-hydroxyphenyl)-1H-benzo[d]imidazol-2-yl)-1H-pyrazolo[3,4-c]pyridin-5-yl)pyridin-3-yl)-3-methylbutanamide]
[1]
  pIC50: < 5.00
[2]
  pEC50: 8.05
